Tests used:
[1] = biological target: T1, human bradykinin 1 receptor (B1R) (Homo sapiens, UniProt P46663); test: Functional investigation on the human bradykinin 1 receptor (B1R), Ca2+ FLIPR assay in CHO K1 hB1R cells; type: cell-based; settings: test substance 10 μM; for inhibition at 10 µM: CHO-K1, B1R antagonism human, % inhibition compared with the maximum achievable inhibition, read-out: B1R Ant. h [10 μM] % Inhibition
T1 construct: expressed in transfected cells; host or cells: CHO K1 cells
T1 sequence (P46663 1-353): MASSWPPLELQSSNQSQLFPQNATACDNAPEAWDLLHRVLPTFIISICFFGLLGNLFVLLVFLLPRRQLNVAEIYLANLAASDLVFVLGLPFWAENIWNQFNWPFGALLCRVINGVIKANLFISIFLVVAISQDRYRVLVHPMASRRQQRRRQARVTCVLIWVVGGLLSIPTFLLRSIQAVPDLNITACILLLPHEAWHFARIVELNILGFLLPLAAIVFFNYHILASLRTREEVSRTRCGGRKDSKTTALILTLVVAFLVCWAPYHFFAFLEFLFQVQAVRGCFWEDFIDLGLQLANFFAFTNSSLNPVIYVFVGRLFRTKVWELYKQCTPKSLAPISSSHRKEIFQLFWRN
Method in brief: (§1)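 Cells were dye-loaded with Fluo-4 plus probenecid, then test substances added and Ca2+ influx compared with agonist control for % activation. After 10-20 min, EC80 agonist (Lys-Des-Arg9-bradykinin human; Des-Arg9-bradykinin rat) was applied; suppression gave % inhibition and IC50 values.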

human μ opiate receptor = biological target: T2, human μ opiate receptor (Homo sapiens, UniProt P35372); test: Affinity for the human μ opiate receptor ([3H]-naloxone displacement, CHO-K1 receptor membrane preparation, SPA); type: binding; settings: Table 3, to be read in the same way as Table 1, test concentration 1 μM; for inhibition at 1 µM: 1.5 h, read-out: μ
T2 construct: purchased PerkinElmer Life Sciences, Zaventem, Belgium RB-HOM; host or cells: CHO-K1 cells (membrane preparation)
Method in brief: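 Scintillation proximity binding on human μ receptor membranes from CHO-K1 cells used 1 nmol/l [3H]-naloxone over 90 min at room temperature in 50 mmol/l Tris-HCl, 0.06% BSA. Percent inhibition was recorded at 1 μM.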

[2] = biological target: T3, bradykinin 1 receptor (B1R) of the rat (Rattus norvegicus, UniProt P97583); test: Functional investigation on the rat bradykinin 1 receptor (B1R), Ca2+ FLIPR assay in CHO K1 rB1R cells; type: cell-based; settings: test substance 10 μM; for inhibition at 10 µM: CHO-K1, B1R antagonism rat, % inhibition compared with the maximum achievable inhibition, read-out: B1R Ant. r [10 μM] % Inhibition
T3 construct: expressed in transfected cells; host or cells: CHO K1 cells
T3 sequence (P97583 1-337): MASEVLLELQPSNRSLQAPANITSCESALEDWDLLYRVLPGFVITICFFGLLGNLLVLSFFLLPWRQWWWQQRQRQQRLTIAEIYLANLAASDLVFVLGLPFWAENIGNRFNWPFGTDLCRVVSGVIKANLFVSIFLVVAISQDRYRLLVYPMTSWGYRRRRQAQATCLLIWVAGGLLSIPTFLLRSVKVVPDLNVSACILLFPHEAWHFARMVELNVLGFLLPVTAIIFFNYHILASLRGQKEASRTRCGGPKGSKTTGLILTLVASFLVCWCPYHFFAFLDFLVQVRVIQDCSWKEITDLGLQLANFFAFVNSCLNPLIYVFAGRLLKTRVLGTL
Method in brief: as §1

T2 sequence (P35372 whole entry): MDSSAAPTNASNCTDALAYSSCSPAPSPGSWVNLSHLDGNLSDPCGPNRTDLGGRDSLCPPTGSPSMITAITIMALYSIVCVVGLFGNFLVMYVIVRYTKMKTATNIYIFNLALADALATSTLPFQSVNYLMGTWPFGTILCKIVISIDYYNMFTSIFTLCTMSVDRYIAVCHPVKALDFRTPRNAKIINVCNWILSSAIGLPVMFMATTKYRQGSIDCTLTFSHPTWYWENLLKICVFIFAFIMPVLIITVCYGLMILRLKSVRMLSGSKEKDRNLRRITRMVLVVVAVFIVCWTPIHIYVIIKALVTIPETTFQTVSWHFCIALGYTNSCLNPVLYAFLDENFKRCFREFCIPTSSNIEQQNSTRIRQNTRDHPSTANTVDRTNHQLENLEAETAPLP

Compound: COc1cc(C)c(S(=O)(=O)N(C)CCOCC(=O)N2CCC(C(c3ccccc3)N3CCN(C)CC3)CC2)c(C)c1 (stereo not drawn) [Example 798, 4-methoxy-N,2,6-trimethyl-N-(2-(2-(4-((4-methylpiperazin-1-yl)(phenyl)methyl)piperidin-1-yl)-2-oxoethoxy)ethyl)benzenesulfonamide]
- inhibition at 10 µM [1]: 110%
- inhibition at 1 µM (human μ opiate receptor): 19%
- inhibition at 10 µM [2]: 100%

Compound: COc1cc(C)c(S(=O)(=O)N(C)CCOCC(=O)N2CCC(C(c3cccc(F)c3)N3CCN(C)CC3)CC2)c(C)c1 (stereo not drawn) [Example 799, N-(2-(2-(4-((3-fluorophenyl)(4-methylpiperazin-1-yl)methyl)piperidin-1-yl)-2-oxoethoxy)ethyl)-4-methoxy-N,2,6-trimethylbenzenesulfonamide]
- inhibition at 10 µM [1]: 110%
- inhibition at 1 µM (human μ opiate receptor): 16%
- inhibition at 10 µM [2]: 100%

Compound: COc1cc(C)c(S(=O)(=O)N2CCCCC2COCC(=O)N2CCC(C(c3cccc(F)c3)N3CCN(C)CC3)CC2)c(C)c1 (stereo not drawn) [Example 800, 1-(4-((3-fluorophenyl)(4-methylpiperazin-1-yl)methyl)piperidin-1-yl)-2-((1-(4-methoxy-2,6-dimethylphenylsulfonyl)piperidin-2-yl)methoxy)ethanone]
- inhibition at 10 µM [1]: 108%
- inhibition at 1 µM (human μ opiate receptor): 7%
- inhibition at 10 µM [2]: 97%

Compound: COc1cc(C)c(S(=O)(=O)N(C)CCOCC(=O)N2CCC(C(CCc3ccccc3)N3CCN(C)CC3)CC2)c(C)c1 (stereo not drawn) [Example 801, 4-methoxy-N,2,6-trimethyl-N-(2-(2-(4-(1-(4-methylpiperazin-1-yl)-3-phenylpropyl)piperidin-1-yl)-2-oxoethoxy)ethyl)benzenesulfonamide]
- inhibition at 10 µM [1]: 106%
- inhibition at 1 µM (human μ opiate receptor): 21%
- inhibition at 10 µM [2]: 97%

Compound: COc1cc(C)c(S(=O)(=O)N2CCCCC2COCC(=O)N2CCC(C(Cc3ccccc3)N3CCN(C)CC3)CC2)c(C)c1 (stereo not drawn) [Example 802, 2-((1-(4-methoxy-2,6-dimethylphenylsulfonyl)piperidin-2-yl)methoxy)-1-(4-(1-(4-methylpiperazin-1-yl)-2-phenylethyl)piperidin-1-yl)ethanone]
- inhibition at 10 µM [1]: 106%
- inhibition at 1 µM (human μ opiate receptor): 27%
- inhibition at 10 µM [2]: 97%

Compound: COc1cc(C)c(S(=O)(=O)N(C)CCOCC(=O)N2CCC(C(Cc3ccccc3)N3CCN(C)CC3)CC2)c(C)c1 (stereo not drawn) [Example 803, 4-methoxy-N,2,6-trimethyl-N-(2-(2-(4-(1-(4-methylpiperazin-1-yl)-2-phenylethyl)piperidin-1-yl)-2-oxoethoxy)ethyl)benzenesulfonamide]
- inhibition at 10 µM [1]: 108%
- inhibition at 1 µM (human μ opiate receptor): 13%
- inhibition at 10 µM [2]: 99%

Compound: COc1cc(C)c(S(=O)(=O)N(C)CCOCC(=O)N2CCC(C(c3ccc(F)cc3)N3CCN(C)CC3)CC2)c(C)c1 (stereo not drawn) [Example 804, N-(2-(2-(4-((4-fluorophenyl)(4-methylpiperazin-1-yl)methyl)piperidin-1-yl)-2-oxoethoxy)ethyl)-4-methoxy-N,2,6-trimethylbenzenesulfonamide]
- inhibition at 10 µM [1]: 105%
- inhibition at 1 µM (human μ opiate receptor): 9%
- inhibition at 10 µM [2]: 100%

Compound: COc1cc(C)c(S(=O)(=O)N2CCCCC2COCC(=O)N2CCC(C(c3ccc(F)cc3)N3CCN(C)CC3)CC2)c(C)c1 (stereo not drawn) [Example 805, 1-(4-((4-fluorophenyl)(4-methylpiperazin-1-yl)methyl)piperidin-1-yl)-2-((1-(4-methoxy-2,6-dimethylphenylsulfonyl)piperidin-2-yl)methoxy)ethanone]
- inhibition at 10 µM [1]: 103%
- inhibition at 1 µM (human μ opiate receptor): 4%
- inhibition at 10 µM [2]: 99%

Compound: COc1cc(C)c(S(=O)(=O)N2CCCCC2COCC(=O)N2CCC(C(CCc3ccccc3)N3CCN(C)CC3)CC2)c(C)c1 (stereo not drawn) [Example 806, 2-((1-(4-methoxy-2,6-dimethylphenylsulfonyl)piperidin-2-yl)methoxy)-1-(4-(1-(4-methylpiperazin-1-yl)-3-phenylpropyl)piperidin-1-yl)ethanone]
- inhibition at 10 µM [1]: 109%
- inhibition at 1 µM (human μ opiate receptor): 12%
- inhibition at 10 µM [2]: 99%

Compound: COc1cc(C)c(S(=O)(=O)N2CCCCC2COCC(=O)N2CCC(C(c3ccccc3)N3CCN(C)CC3)CC2)c(C)c1 (stereo not drawn) [Example 807, 2-((1-(4-methoxy-2,6-dimethylphenylsulfonyl)piperidin-2-yl)methoxy)-1-(4-((4-methylpiperazin-1-yl)(phenyl)methyl)piperidin-1-yl)ethanone]
- inhibition at 10 µM [1]: 105%
- inhibition at 1 µM (human μ opiate receptor): 11%
- inhibition at 10 µM [2]: 98%

Compound: CN1CCN(C(c2ccc(F)cc2)C2CCN(C(=O)COCC3CCc4ccccc4N3S(=O)(=O)c3ccc(Cl)c(Cl)c3)CC2)CC1 (stereo not drawn) [Example 808, 2-((1-(3,4-dichlorophenylsulfonyl)-1,2,3,4-tetrahydroquinolin-2-yl)methoxy)-1-(4-((4-fluorophenyl)(4-methylpiperazin-1-yl)methyl)piperidin-1-yl)ethanone]
- inhibition at 10 µM [1]: 122%
- inhibition at 1 µM (human μ opiate receptor): 12%
- inhibition at 10 µM [2]: 75%

Compound: CN1CCN(C(c2cccc(F)c2)C2CCN(C(=O)COCC3CCc4ccccc4N3S(=O)(=O)c3ccc(Cl)c(Cl)c3)CC2)CC1 (stereo not drawn) [Example 809, 2-((1-(3,4-dichlorophenylsulfonyl)-1,2,3,4-tetrahydroquinolin-2-yl)methoxy)-1-(4-((3-fluorophenyl)(4-methylpiperazin-1-yl)methyl)piperidin-1-yl)ethanone]
- inhibition at 10 µM [1]: 109%
- inhibition at 1 µM (human μ opiate receptor): 6%
- inhibition at 10 µM [2]: 87%

Compound: CN1CCN(C(c2ccccc2)C2CCN(C(=O)COCC3CCc4ccccc4N3S(=O)(=O)c3ccc(Cl)c(Cl)c3)CC2)CC1 (stereo not drawn) [Example 810, 2-((1-(3,4-dichlorophenylsulfonyl)-1,2,3,4-tetrahydroquinolin-2-yl)methoxy)-1-(4-((4-methylpiperazin-1-yl)(phenyl)methyl)piperidin-1-yl)ethanone]
- inhibition at 10 µM [1]: 102%
- inhibition at 1 µM (human μ opiate receptor): 19%
- inhibition at 10 µM [2]: 97%

Compound: CN1CCN(C(CCc2ccccc2)C2CCN(C(=O)COCC3CCc4ccccc4N3S(=O)(=O)c3ccc(Cl)c(Cl)c3)CC2)CC1 (stereo not drawn) [Example 811, 2-((1-(3,4-dichlorophenylsulfonyl)-1,2,3,4-tetrahydroquinolin-2-yl)methoxy)-1-(4-(1-(4-methylpiperazin-1-yl)-3-phenylpropyl)piperidin-1-yl)ethanone]
- inhibition at 10 µM [1]: 104%
- inhibition at 1 µM (human μ opiate receptor): 20%
- inhibition at 10 µM [2]: 96%

Compound: CN1CCN(C(Cc2ccccc2)C2CCN(C(=O)COCC3CCc4ccccc4N3S(=O)(=O)c3ccc(Cl)c(Cl)c3)CC2)CC1 (stereo not drawn) [Example 812, 2-((1-(3,4-dichlorophenylsulfonyl)-1,2,3,4-tetrahydroquinolin-2-yl)methoxy)-1-(4-(1-(4-methylpiperazin-1-yl)-2-phenylethyl)piperidin-1-yl)ethanone]
- inhibition at 10 µM [1]: 105%
- inhibition at 1 µM (human μ opiate receptor): 37%
- inhibition at 10 µM [2]: 98%

Compound: N-((4-(morpholino(phenyl)methyl)cyclohexyl)methyl)-2-((1-(2,4,6-trichlorophenylsulfonyl)piperidin-3-yl)methoxy)acetamide [Example 713]
- B1R Ant. h [10 μM] % Inhibition ([1]; B1R antagonism human, Ca2+ FLIPR, CHO K1 hB1R cells): −15%
- μ (human μ opiate receptor): 14 % inhibition
- B1R Ant. r [10 μM] % Inhibition ([2]; B1R antagonism rat, Ca2+ FLIPR, CHO K1 rB1R cells): 16%
